Consider one compound from patent US6458838B1, “Adrenoleukodystrophy treatments” (Johns Hopkins University, priority 1999, dated 2002).

The subject of test [1] is acyl-CoA oxidase (AOX). Briefly: Semi-quantitative RT-PCR in primary fibroblasts. The test is classed as cell-based. As to conditions: 5 mM 4-PBA. As to the method:
(§1) Semi-quantitative RT-PCR was done on the mRNA isolated from these cells (FIG. 1). […] In addition, the expression of acyl-CoA oxidase (AOX), the rate-limiting enzyme in VLCFA β-oxidation, was not affected. Although previous studies have reported that ALDR mRNA was not detectable in fibroblasts by either northern or RT-PCR analyses, those RT-PCR studies used about 66 ng of CDNA; we used about 250 ng of cDNA.
(§2) In rodents PPARα expression is increased by peroxisomal proliferators. […] Thus, although the peroxisome proliferation response in mice may be, at least in part, through the documented PPARα pathway, the response in human cells seems to be through a newly discovered pathway that may involve Pex11α. […] This again indicates a newly discovered pathway for 4-PBA-induced peroxisome proliferation in humans and perhaps in rodents. AOX has been identified as the rate-limiting step in VLCFA β-oxidation.
(§3) Semi-quantitative RT-PCR analysis. Total RNA from tissue culture cells (10^6-10^7 cells/sample) was isolated using TRizol Reagent™ (Life Technologies), treated with DNase I (100-200 units in 40 mM HCI, 10 mM NaCl, 6 mM MgCl2, pH 7.3), incubated at 37° C. for 30 min, extracted with phenol/chloroform, and precipitated with isopropanol. cDNA was generated using MMLV reverse transcriptase (RT) (Life Technologies). PCR was done in the linear range of amplification (determined for each primerpair-cDNA combination). For each cDNA sample, a ‘cocktail’ was prepared, containing PCR buffer (Promega), 200 µM of each DNTP, 1.5 mM MgCl2, 250 ng cDNA, 0.25 U of Taq polymerase (Promega) and […]. The ‘cocktail’ was divided into separate tubes containing cDNA specific primers.
(§4) Primers. The PCR primers used are listed below. In the parentheses, h indicates human and m, mouse; this is followed by the gene name, product size and annealing temperature. For primer sequences, F is forward and R is reverse. […]

The test system of test [2] is PMP69. The test can be described thus: Semi-quantitative RT-PCR in primary fibroblasts. The following applies: X-ALD or normal primary fibroblasts, 5 mM 4-PBA for 2 days. The format is cell-based, human. Here is the method: as §1, §3, §4
Test [3] deals with PMP70. The test can be described thus: Semi-quantitative RT-PCR in primary fibroblasts. The format is cell-based, human. The following applies: X-ALD or normal primary fibroblasts, 5 mM 4-PBA for 2 days. As to the method:
as §1, §3, §4

The subject of test [4] is ALDP. Briefly: Semi-quantitative RT-PCR in primary fibroblasts. As to conditions: normal primary fibroblasts, 5 mM 4-PBA for 2 days. The test is classed as cell-based, human. As to the method:
as §1, §3, §4

For test [5], the system named is Pex11α. The test can be described thus: Semi-quantitative RT-PCR in primary fibroblasts. The test is classed as cell-based. Here is the method:
as §3, §4

The subject of test [6] is PPARα. Briefly: Semi-quantitative RT-PCR in primary fibroblasts. The format is cell-based.
Text: as §2, §3
Primers. The PCR primers used are listed below. […]

Test [7] relates to ALDP. The test can be described thus: ALDP stabilization, cytological immunofluorescence with anti-ALDP antibody. The format is cell-based. The following applies: human X-ALD primary fibroblasts with destabilizing missense mutations (A626T, R660W); 5 mM 4-PBA up to 10 days; data not shown. The text has this: Immunofluorescence and peroxisome counting. […] The anti-SKL (PTSI) antibody was a gift from S. Gould and the anti-Pex11α antibody was a gift from S. Mihalik. To count peroxisomes, we photographed immunofluorescence-stained cells after focusing on the cell nucleus, and determined the peroxisome number per cell with the aid of a colon counter after projecting the slides to enlarge the image.

Entries after “also recorded” stand apart in the source; their conditions may differ.

Consider `O=C(O)CCCc1ccccc1` [4-PBA, 4-Phenyl butyrate], for which the AOX expression entry in test [1] (human fibroblasts, 2 days) is listed as “not affected; also recorded: unchanged”; in test [1] (human fibroblasts, 10 days), “remained unchanged”; in test [1] (mouse fibroblasts, 2 days) it was “not affected; also recorded: unchanged”. In addition, the PMP69 expression level entry in test [2] is “little, if any, effect”. For the same compound, in test [3], the PMP70 expression level entry is “little, if any, effect”. Also, the “ALDP expression (mRNA)” value in test [4] is on record as “little, if any, effect”. In addition, in test [5] (human fibroblasts, 5 mM 4-PBA, after 2 days), the Pex11α expression entry is “substantial increase”. Besides, the Pex11α transcripts result in test [5] (normal or X-ALD mouse fibroblasts, before or after 10 day exposure to 5 mM 4-PBA, data not shown) was “undetectable”. The PPARα expression result in test [6] (human X-ALD fibroblasts, even after 10 days of treatment) was “unchanged”; in test [6] (mouse X-ALD fibroblasts, as early as 2 days after treatment), “increased”. In test [7], the “detectable ALDP after treatment” value is “did not result in detectable levels of ALDP”.
